According to patent publication US12479928B2, “Anti-cancer peptide” (Minerva Biotechnologies Corporation, priority 2014, dated 2025):
“Also recorded” adds a separate entry of the source.

Legend:
T47D breast cancer cells [1] = experiment: Cancer cell growth inhibition by anti-NME7 specific antibodies and immunizing peptides (Example 13); format: cell-based, human; conditions: added separately; RPMI with serum
Description: Rabbits were immunized with NME7 peptides A1, A2, B1, B2, and B3 and antibodies were generated, collected and purified over a column to which the immunizing peptide had been conjugated. T47D breast cancer cells were plated and cultured according to ATCC protocols in RPMI media supplemented with serum. Immunizing peptides A1, A2, B1, B2, and B3, and the PSMGFR extracellular domain peptide of MUC1*, “FLR” here, were also added separately to growing T47D breast cancer cells. Taxol and the E6 anti-MUC1* Fab were added as controls. […] Note the comparison to inhibition using Taxol, which is a chemotherapy agent that kills healthy and cancer cells alike. Also, for comparison, a polyclonal antibody generated using a large stretch of NME7 from amino acid 100 to 376 is shown.
In a similar experiment, combinations of the antibodies generated from immunization with peptides A1, A2, B1, B2, and B3 as well as the peptides themselves were added to growing cancer cells at the concentrations indicated. […] In these two experiments, the cells were MUC1* positive breast cancer cells.

[2] = target: T1, binding of human NME1 to synthetic MUC1* peptide (Homo sapiens, UniProt P15941); experiment: ELISA: inhibition of NME1 binding to immobilized MUC1* peptide; conditions: free peptides
T1 sequence (P15941 1110-1154 limits assumed): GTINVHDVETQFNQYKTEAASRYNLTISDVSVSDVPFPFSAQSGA
Source text: (§1) NME7 peptides were selected as immunizing agents for antibody production. NME7 peptides A1, A2, B1, B2 and B3 (FIG. 19) were chosen using a process of sequence alignment among human NME1, human NME7 and several bacterial NMEs that were homologous to human NME1 or human NME7. Five regions that had high sequence homology among all were identified. However, to prevent selecting peptides that would give rise to antibodies that would inhibit human NME1 as well as human NME7, we chose NME7 sequences that were adjacent to the homologous regions wherein those peptides had sequences that were different from human NME1. We did ELISA assays to see if the peptides on their own could bind to a synthetic MUC1* peptide on the surface and inhibit the binding of human NME7 or human NME1 to the immobilized peptide (FIG. 27).

[3] = target: T2, binding of human NME7 to synthetic MUC1* peptide (Homo sapiens, UniProt P15941); experiment: ELISA: inhibition of NME7 binding to immobilized MUC1* peptide; conditions: free peptides
T2 construct: made in house; host or cells: E. coli
T2 sequence (P15941 1110-1154 limits assumed): T1 sequence (P15941 1110-1154 limits assumed)
Source text: Those antibodies that inhibit cancer growth or transition to a more metastatic state are selected for use as anti-cancer therapeutics and may be administered to a patient for the treatment or prevention of cancers. Selected antibodies may be further optimized for example by engineering or making human chimera antibodies or fully human antibodies. […] We then generated antibodies using these peptides and then tested both the resultant antibodies as well as the immunizing peptides for their ability to: a) inhibit cancerous growth; and b) inhibit the induced transition from cancer cells to metastatic cancer cells. NME7 peptides were selected as immunizing agents for antibody production and as inhibitory agents themselves (FIG. 19 and Example 11). Peptides A1 (SEQ ID NO:141), A2 (SEQ ID NO:142), B1 (SEQ ID NO:143), B2 (SEQ ID NO:144) and B3 (SEQ ID NO:145), wherein A refers to the domain from which the peptide is derived, i.e. the NDPK A domain and the B denotes that the peptide is derived from the NDPK B domain (FIG. 15). Each peptide was used as an immunogen and injected into 2 rabbits each for production of polyclonal antibodies. The antibodies that were harvested from the blood of the immunized rabbits were purified over a column derivatized with the immunizing peptide. The purified antibodies were then tested for their ability to bind to human NME7. All of the resultant antibodies bound to human NME7 but not human NME1 as desired (FIG. 26A-B, Example 12). […] The antibodies were also tested for their ability to inhibit the binding of NME7 to a MUC1* extracellular domain peptide.
as §1

T47D breast cancer cells [4] = experiment: Inhibition of NME7-AB or 2i induced transition of cancer cells to metastatic cancer cells (floaters, RT-PCR); format: cell-based, human; conditions: for expression of metastasis marker CXCR4 (RT-PCR) / floater cells (change from adherent cells to floaters): cells grown in NME7-AB or 2i; for floater cells (change from adherent cells to floaters): visual observation; for inhibition of transition to a more metastatic state (RT-PCR CXCR4, CHD1, SOX2): peptides alone, transition induced by 2i inhibitors
Description: In one example, NME7-AB specific antibodies, generated by immunization with NME7-derived peptides A1, A2, B1, B2 and B3, as well as the immunizing peptides themselves, were added into the media along with either NME7-AB or 2i to determine if they inhibited the transformation of regular cancer cells to metastatic cancer stem cells. Antibodies and peptides were separately added along with the agent that causes metastatic transformation; in this case NME7-AB or the 2i inhibitors PD0325901 and CHIR99021. NME7-AB and 2i were separately used to induce the cancer cells to be transformed to a more aggressive metastatic state. 2i was used so that it could not be argued that the antibodies that were added to the media simply sopped up all of the NME7-AB so that the causative agent effectively was not there (Example 14).
Visual observation was independently recorded by two scientists as the experiment progressed (FIG. 30). […] The amount of mRNA, which indicates cell viability and growth, was measured. […] RT-PCR was used to measure expression levels of metastatic markers, including CXCR4.
In another experiment, the free peptides A1, A2, B1, B2 and B3 were added to cancer cells in culture that were undergoing transition to a more metastatic state by culturing in either NME7-AB or 2i.
In the first of these experiments, the antibodies generated by immunization with A1, A2, B1, B2 and B3 were tested for their ability to inhibit the metastatic transition induced by culture of T47D breast cancer cells in NME7-AB or in 2i inhibitors.
RT-PCR was used to measure expression levels of metastatic markers, including CXCR4. […] (See FIG. 31). […] Peptide B3 was especially effective as was antibody #61 that it generated. […] The amount of mRNA, which indicates cell viability and growth, was measured.

[5] = test system: Human stem cells (iPS cat #SC101a-1); experiment: Human stem cell growth and pluripotency in NME7-AB or NM23-H1 dimers; format: cell-based; conditions: 8 nM in Minimal Stem Cell Media
Description: For testing recombinant NME7-AB for ability to maintain pluripotency and inhibit differentiation, a soluble variant of NME7, NME7-AB, was generated and purified. Human stem cells (iPS cat #SC101a-1, System Biosciences) were grown per the manufacturer's directions in 4 ng/ml bFGF over a layer of mouse fibroblast feeder cells for four passages. These source stem cells were then plated into 6-well cell culture plates (Vita™, Thermo Fisher) that had been coated with 12.5 ug/well of a monoclonal anti-MUC1* antibody, MN-C3. Cells were plated at a density of 300,000 cells per well. The base media was Minimal Stem Cell Media consisting of: 400 ml DME/F12/GlutaMAX I (Invitrogen #10565-018), 100 ml Knockout Serum Replacement (KO-SR, Invitrogen #10828-028), 5 ml 100×MEM Non-essential Amino Acid Solution (Invitrogen #11140-050) and 0.9 ml (0.1 mM) β-mercaptoethanol (55 mM stock, Invitrogen #21985-023). The base media can be any media. In a preferred embodiment, the base media is free of other growth factors and cytokines. To the base media was added either 8 nM of NME7-AB or 8 nM NM23-H1 refolded and purified as stable dimers. Media was changed every 48 hours and due to accelerated growth, had to be harvested and passaged at Day 3 post-plating.
Cell counts at the first harvest verified that culture in NME7 produced 1.4-times more cells than culture in NM23-H1 dimers.

Row | Substance | inhibition of cancer cell growth (T47D breast cancer cells [1]) | inhibition of binding of NME1 to immobilized MUC1* peptide [2] | inhibition of binding of NME7 to immobilized MUC1* peptide [3] | expression of metastasis marker CXCR4 (RT-PCR) (T47D breast cancer cells [4]) | floater cells (change from adherent cells to floaters) (T47D breast cancer cells [4]) | inhibition of transition to a more metastatic state (RT-PCR CXCR4, CHD1, SOX2) (T47D breast cancer cells [4]) | pluripotent stem cell growth / differentiation [5]
1 | AIFGKTKIQNAVHCTDLPEDGLLEVQYFF (peptide B3) | potently inhibited the growth | inhibited the binding | inhibited the binding | inhibited the increase in expression | inhibited the morphological change | potently inhibit; also recorded: most inhibitory | 
2 | DAGFEISAMQMFNMDRVNVE (peptide B1) | potently inhibited the growth | inhibited the binding | inhibited the binding | inhibited the increase in expression | inhibited the morphological change | potently inhibit | 
3 | EVYKGVVTEYHDMVTE (peptide B2) | potently inhibited the growth | inhibited the binding | inhibited the binding | inhibited the increase in expression | inhibited the morphological change | potently inhibit | 
4 | MLSRKEALDFHVDHQS (peptide A1) | potently inhibited the growth | inhibited the binding | inhibited the binding | inhibited the increase in expression | inhibited the morphological change | potently inhibit | 
5 | NM23-H1 (NME1) dimers: NM23-H1 refolded and purified as stable dimers |  |  |  |  |  |  | no differentiation even when 100% confluent
6 | SGVARTDASES (peptide A2) | potently inhibited the growth | inhibited the binding | inhibited the binding | inhibited the increase in expression | inhibited the morphological change | potently inhibit | 
